{"source": "BigSolDB 2.1"}
{"smiles": "ClCc1ccc(Cl)nc1", "values": [{"measurement": "solubility (mole fraction)", "setting": "in acetone, 278.85 K", "result": 0.0226}, {"measurement": "solubility (mole fraction)", "setting": "in acetone, 281.75 K", "result": 0.0249}, {"measurement": "solubility (mole fraction)", "setting": "in acetone, 283.55 K", "result": 0.0267}, {"measurement": "solubility (mole fraction)", "setting": "in acetone, 284.65 K", "result": 0.0278}, {"measurement": "solubility (mole fraction)", "setting": "in acetone, 288.95 K", "result": 0.0325}, {"measurement": "solubility (mole fraction)", "setting": "in acetone, 291.15 K", "result": 0.0353}, {"measurement": "solubility (mole fraction)", "setting": "in acetone, 293.65 K", "result": 0.0385}, {"measurement": "solubility (mole fraction)", "setting": "in acetone, 295.85 K", "result": 0.0415}, {"measurement": "solubility (mole fraction)", "setting": "in acetone, 297.65 K", "result": 0.0442}, {"measurement": "solubility (mole fraction)", "setting": "in acetone, 300.35 K", "result": 0.0486}, {"measurement": "solubility (mole fraction)", "setting": "in acetone, 302.95 K", "result": 0.0528}, {"measurement": "solubility (mole fraction)", "setting": "in acetone, 304.85 K", "result": 0.0566}, {"measurement": "solubility (mole fraction)", "setting": "in acetone, 307.05 K", "result": 0.0604}, {"measurement": "solubility (mole fraction)", "setting": "in chloroform, 275.85 K", "result": 0.0164}, {"measurement": "solubility (mole fraction)", "setting": "in chloroform, 279.35 K", "result": 0.0204}, {"measurement": "solubility (mole fraction)", "setting": "in chloroform, 281.55 K", "result": 0.0235}, {"measurement": "solubility (mole fraction)", "setting": "in chloroform, 284.35 K", "result": 0.028}, {"measurement": "solubility (mole fraction)", "setting": "in chloroform, 287.45 K", "result": 0.0339}, {"measurement": "solubility (mole fraction)", "setting": "in chloroform, 290.35 K", "result": 0.0405}, {"measurement": "solubility (mole fraction)", "setting": "in chloroform, 292.95 K", "result": 0.0473}, {"measurement": "solubility (mole fraction)", "setting": "in chloroform, 295.25 K", "result": 0.0546}, {"measurement": "solubility (mole fraction)", "setting": "in chloroform, 297.65 K", "result": 0.063}, {"measurement": "solubility (mole fraction)", "setting": "in chloroform, 298.55 K", "result": 0.0665}, {"measurement": "solubility (mole fraction)", "setting": "in chloroform, 300.45 K", "result": 0.0745}, {"measurement": "solubility (mole fraction)", "setting": "in chloroform, 302.75 K", "result": 0.0858}, {"measurement": "solubility (mole fraction)", "setting": "in chloroform, 306.95 K", "result": 0.109}, {"measurement": "solubility (mole fraction)", "setting": "in ethanol, 277.65 K", "result": 0.00332}, {"measurement": "solubility (mole fraction)", "setting": "in ethanol, 279.75 K", "result": 0.00365}, {"measurement": "solubility (mole fraction)", "setting": "in ethanol, 282.05 K", "result": 0.00406}, {"measurement": "solubility (mole fraction)", "setting": "in ethanol, 284.75 K", "result": 0.00456}, {"measurement": "solubility (mole fraction)", "setting": "in ethanol, 287.35 K", "result": 0.00521}, {"measurement": "solubility (mole fraction)", "setting": "in ethanol, 289.65 K", "result": 0.00576}, {"measurement": "solubility (mole fraction)", "setting": "in ethanol, 292.65 K", "result": 0.00661}, {"measurement": "solubility (mole fraction)", "setting": "in ethanol, 295.35 K", "result": 0.00749}, {"measurement": "solubility (mole fraction)", "setting": "in ethanol, 298.35 K", "result": 0.00859}, {"measurement": "solubility (mole fraction)", "setting": "in ethanol, 301.85 K", "result": 0.0102}, {"measurement": "solubility (mole fraction)", "setting": "in ethanol, 304.15 K", "result": 0.0112}, {"measurement": "solubility (mole fraction)", "setting": "in ethanol, 305.85 K", "result": 0.012}, {"measurement": "solubility (mole fraction)", "setting": "in ethanol, 307.25 K", "result": 0.0127}, {"measurement": "solubility (mole fraction)", "setting": "in ethyl acetate, 278.35 K", "result": 0.00447}, {"measurement": "solubility (mole fraction)", "setting": "in ethyl acetate, 280.05 K", "result": 0.00488}, {"measurement": "solubility (mole fraction)", "setting": "in ethyl acetate, 281.65 K", "result": 0.0053}, {"measurement": "solubility (mole fraction)", "setting": "in ethyl acetate, 284.75 K", "result": 0.00619}, {"measurement": "solubility (mole fraction)", "setting": "in ethyl acetate, 286.25 K", "result": 0.00667}, {"measurement": "solubility (mole fraction)", "setting": "in ethyl acetate, 288.15 K", "result": 0.00731}, {"measurement": "solubility (mole fraction)", "setting": "in ethyl acetate, 290.45 K", "result": 0.00825}, {"measurement": "solubility (mole fraction)", "setting": "in ethyl acetate, 292.95 K", "result": 0.00939}, {"measurement": "solubility (mole fraction)", "setting": "in ethyl acetate, 296.15 K", "result": 0.011}, {"measurement": "solubility (mole fraction)", "setting": "in ethyl acetate, 299.05 K", "result": 0.0125}, {"measurement": "solubility (mole fraction)", "setting": "in ethyl acetate, 302.95 K", "result": 0.0153}, {"measurement": "solubility (mole fraction)", "setting": "in ethyl acetate, 305.35 K", "result": 0.0167}, {"measurement": "solubility (mole fraction)", "setting": "in ethyl acetate, 306.45 K", "result": 0.0176}, {"measurement": "solubility (mole fraction)", "setting": "in ethyl acetate, 307.45 K", "result": 0.0184}, {"measurement": "solubility (mole fraction)", "setting": "in methanol, 277.25 K", "result": 0.00235}, {"measurement": "solubility (mole fraction)", "setting": "in methanol, 281.35 K", "result": 0.00277}, {"measurement": "solubility (mole fraction)", "setting": "in methanol, 282.75 K", "result": 0.00296}, {"measurement": "solubility (mole fraction)", "setting": "in methanol, 284.35 K", "result": 0.00319}, {"measurement": "solubility (mole fraction)", "setting": "in methanol, 288.85 K", "result": 0.00392}, {"measurement": "solubility (mole fraction)", "setting": "in methanol, 292.75 K", "result": 0.00468}, {"measurement": "solubility (mole fraction)", "setting": "in methanol, 296.05 K", "result": 0.00537}, {"measurement": "solubility (mole fraction)", "setting": "in methanol, 299.25 K", "result": 0.00607}, {"measurement": "solubility (mole fraction)", "setting": "in methanol, 303.75 K", "result": 0.00722}, {"measurement": "solubility (mole fraction)", "setting": "in methanol, 305.35 K", "result": 0.00768}, {"measurement": "solubility (mole fraction)", "setting": "in methanol, 306.55 K", "result": 0.00803}, {"measurement": "solubility (mole fraction)", "setting": "in toluene, 278.75 K", "result": 0.0191}, {"measurement": "solubility (mole fraction)", "setting": "in toluene, 281.55 K", "result": 0.0249}, {"measurement": "solubility (mole fraction)", "setting": "in toluene, 283.25 K", "result": 0.0293}, {"measurement": "solubility (mole fraction)", "setting": "in toluene, 287.35 K", "result": 0.043}, {"measurement": "solubility (mole fraction)", "setting": "in toluene, 288.15 K", "result": 0.0464}, {"measurement": "solubility (mole fraction)", "setting": "in toluene, 290.75 K", "result": 0.059}, {"measurement": "solubility (mole fraction)", "setting": "in toluene, 292.15 K", "result": 0.0671}, {"measurement": "solubility (mole fraction)", "setting": "in toluene, 293.75 K", "result": 0.0776}, {"measurement": "solubility (mole fraction)", "setting": "in toluene, 295.45 K", "result": 0.0906}, {"measurement": "solubility (mole fraction)", "setting": "in toluene, 297.75 K", "result": 0.111}, {"measurement": "solubility (mole fraction)", "setting": "in toluene, 301.65 K", "result": 0.158}, {"measurement": "solubility (mole fraction)", "setting": "in toluene, 305.55 K", "result": 0.223}, {"measurement": "solubility (mole fraction)", "setting": "in water, 277.75 K", "result": 0.000167}, {"measurement": "solubility (mole fraction)", "setting": "in water, 280.25 K", "result": 0.000174}, {"measurement": "solubility (mole fraction)", "setting": "in water, 283.75 K", "result": 0.000197}, {"measurement": "solubility (mole fraction)", "setting": "in water, 288.35 K", "result": 0.000215}, {"measurement": "solubility (mole fraction)", "setting": "in water, 292.15 K", "result": 0.000234}, {"measurement": "solubility (mole fraction)", "setting": "in water, 294.25 K", "result": 0.000249}, {"measurement": "solubility (mole fraction)", "setting": "in water, 297.65 K", "result": 0.000265}, {"measurement": "solubility (mole fraction)", "setting": "in water, 301.25 K", "result": 0.000288}, {"measurement": "solubility (mole fraction)", "setting": "in water, 302.95 K", "result": 0.000295}, {"measurement": "solubility (mole fraction)", "setting": "in water, 304.25 K", "result": 0.000308}, {"measurement": "solubility (mole fraction)", "setting": "in water, 305.85 K", "result": 0.00032}, {"measurement": "solubility (mole fraction)", "setting": "in water, 308.75 K", "result": 0.000332}, {"measurement": "solubility (mole fraction)", "setting": "in water, 309.15 K", "result": 0.00034}]}
